# Entries after “also recorded” stand apart in the source; their conditions may differ. Like-named read-outs stand apart in the source and are kept apart here.
# What was measured:
# [1] = Metabolite identification in plasma; assay type: in vivo, SD rat; conditions: oral WX-0593
# Excerpt: Under current experimental conditions, a total of 2 metabolites in addition to the parent drug were detected in rat plasma: a demethylation metabolite, M2 (MW = 554.23, P - CH2) and a mono-oxidation and dehydrogenation product, M6 (MW = 582.23, P + O - 2H). Based on the % peak area from mass spectrometry, the drug exists primarily as the parent drug in the plasma of both male and female rats (97.24% in females and 96.81% in males). Metabolites M2 (2.76% in females and 2.88% in males) and M6 ([…] and 0.31% in males) were both secondary metabolites. Based on the types of metabolites, it is speculated that WX-0593 is mainly metabolized through demethylation, oxidation, and dehydrogenation after oral administration in rats. There was no significant difference in metabolites between female and male rats.
# [2] = Tissue distribution of total radioactivity after [14C]WX-0593; assay type: in vivo, SD rats
# Procedure: At 0.5 h after drug administration, the total radioactivity was mainly distributed in the gastrointestinal tract, liver, oesophagus, and adrenal glands. […] The distribution of total radioactivity in other tissues in descending order was lungs, kidneys, spleen, pancreas, lymph nodes, heart, uterus and ovaries, plasma, thymus, prostate, whole blood, skeletal muscles, skin, testis and epididymis, and whole brain. […] Only the total radioactivity of skeletal muscles (1417 ng Eq./g), whole blood (1366 ng Eq./g), body fat (1079 ng Eq./g), testis and epididymis (619 ng Eq./g), and whole brain (114 ng Eq./g) were lower than that of plasma at the same time point. […] At the last sampling time point (72 h), most total radioactivity had been cleared from the body and only the spleen, adrenal glands, liver, testis and epididymis, kidneys, lymph nodes, uterus and ovaries, intestinal wall, lungs, and thymus had been traced small amount of radioactivity.
# ALK mutant L1196M = ALK mutant L1196M (Homo sapiens, UniProt Q9UM73, L1196M); assay: In vitro enzyme inhibition study; assay type: biochemical; conditions: difference in inhibitory activity within 3 times
# Chain of ALK mutant L1196M (Q9UM73 19-1620 L1196M): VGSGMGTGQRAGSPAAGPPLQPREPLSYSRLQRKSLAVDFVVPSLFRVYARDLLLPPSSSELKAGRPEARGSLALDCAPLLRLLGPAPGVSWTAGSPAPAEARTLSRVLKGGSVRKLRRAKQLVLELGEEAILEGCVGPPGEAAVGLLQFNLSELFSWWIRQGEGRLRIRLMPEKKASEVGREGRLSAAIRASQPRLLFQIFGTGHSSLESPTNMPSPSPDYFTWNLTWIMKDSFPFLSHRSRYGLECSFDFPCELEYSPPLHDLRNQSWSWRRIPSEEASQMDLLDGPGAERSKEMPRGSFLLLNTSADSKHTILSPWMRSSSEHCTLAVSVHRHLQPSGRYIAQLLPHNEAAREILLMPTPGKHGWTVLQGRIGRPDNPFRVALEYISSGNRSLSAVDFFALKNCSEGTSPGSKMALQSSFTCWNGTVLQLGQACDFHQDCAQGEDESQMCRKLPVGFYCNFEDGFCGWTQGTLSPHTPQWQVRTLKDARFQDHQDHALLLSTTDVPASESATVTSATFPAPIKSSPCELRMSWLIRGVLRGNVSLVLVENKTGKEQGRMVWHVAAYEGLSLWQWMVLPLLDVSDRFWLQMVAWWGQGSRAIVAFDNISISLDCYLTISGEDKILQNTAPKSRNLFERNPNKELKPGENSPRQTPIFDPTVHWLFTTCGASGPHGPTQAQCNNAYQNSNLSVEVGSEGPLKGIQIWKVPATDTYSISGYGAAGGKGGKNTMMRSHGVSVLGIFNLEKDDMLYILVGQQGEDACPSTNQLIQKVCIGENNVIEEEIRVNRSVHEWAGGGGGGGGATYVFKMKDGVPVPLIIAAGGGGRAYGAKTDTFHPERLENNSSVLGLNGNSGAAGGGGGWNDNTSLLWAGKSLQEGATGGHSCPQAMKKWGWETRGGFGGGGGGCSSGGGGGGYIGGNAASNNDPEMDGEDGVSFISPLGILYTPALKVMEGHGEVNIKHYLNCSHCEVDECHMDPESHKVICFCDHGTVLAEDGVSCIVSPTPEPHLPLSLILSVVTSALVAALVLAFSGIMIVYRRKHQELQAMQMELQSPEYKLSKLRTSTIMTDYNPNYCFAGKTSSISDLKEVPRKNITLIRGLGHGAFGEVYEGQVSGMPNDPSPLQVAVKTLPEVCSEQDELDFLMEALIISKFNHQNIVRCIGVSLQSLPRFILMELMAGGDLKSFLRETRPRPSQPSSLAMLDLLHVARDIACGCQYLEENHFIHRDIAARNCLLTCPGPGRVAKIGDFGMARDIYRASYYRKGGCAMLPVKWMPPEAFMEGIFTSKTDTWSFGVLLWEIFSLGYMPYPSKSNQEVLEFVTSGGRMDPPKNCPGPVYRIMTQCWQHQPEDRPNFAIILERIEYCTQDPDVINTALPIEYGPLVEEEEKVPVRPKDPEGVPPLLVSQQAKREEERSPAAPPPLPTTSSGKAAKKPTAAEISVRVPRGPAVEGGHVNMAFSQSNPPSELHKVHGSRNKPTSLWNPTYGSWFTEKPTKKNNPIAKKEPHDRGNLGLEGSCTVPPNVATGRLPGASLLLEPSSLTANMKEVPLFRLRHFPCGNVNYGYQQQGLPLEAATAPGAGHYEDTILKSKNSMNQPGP
# Excerpt: The inhibitory activities were low for other serine, threonine, and tyrosine […], except for the EGFR wild type, within the tested concentration range.
# [3] = cynomolgus monkey, in vivo
# 21 GPCR targets = assay: GPCR agonist screening assay; assay type: cell-based; conditions: all 21 GPCR targets
# Excerpt: In the agonist screening assay, the activity percent at maximum dose of WX-0593 was all less than 50% for the 21 GPCR targets tested.
# op-kappa = op-kappa (Homo sapiens, UniProt P41145); assay: GPCR antagonist screening assay; assay type: cell-based
# Chain of op-kappa (P41145 whole entry): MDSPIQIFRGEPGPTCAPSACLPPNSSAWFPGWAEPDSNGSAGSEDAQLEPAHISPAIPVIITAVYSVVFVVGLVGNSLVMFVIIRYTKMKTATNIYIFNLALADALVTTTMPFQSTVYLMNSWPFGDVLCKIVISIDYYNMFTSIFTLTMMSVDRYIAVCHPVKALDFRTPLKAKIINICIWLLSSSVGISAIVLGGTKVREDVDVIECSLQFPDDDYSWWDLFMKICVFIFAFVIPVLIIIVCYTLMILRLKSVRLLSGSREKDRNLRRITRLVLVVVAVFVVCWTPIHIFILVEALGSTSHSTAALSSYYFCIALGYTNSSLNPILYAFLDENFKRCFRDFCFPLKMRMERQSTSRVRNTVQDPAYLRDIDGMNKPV
# [4] = Absorption study (IV and oral gavage PK); assay type: in vivo, Sprague Dawley (SD) rats; conditions: for bioavailability: read-out: absolute bioavailability
# [5] = Single-dose toxicity study (acute toxicity)
# M1 = M1 (Homo sapiens, UniProt P11229); assay: GPCR antagonist screening assay; assay type: cell-based
# Chain of M1 (P11229 whole entry): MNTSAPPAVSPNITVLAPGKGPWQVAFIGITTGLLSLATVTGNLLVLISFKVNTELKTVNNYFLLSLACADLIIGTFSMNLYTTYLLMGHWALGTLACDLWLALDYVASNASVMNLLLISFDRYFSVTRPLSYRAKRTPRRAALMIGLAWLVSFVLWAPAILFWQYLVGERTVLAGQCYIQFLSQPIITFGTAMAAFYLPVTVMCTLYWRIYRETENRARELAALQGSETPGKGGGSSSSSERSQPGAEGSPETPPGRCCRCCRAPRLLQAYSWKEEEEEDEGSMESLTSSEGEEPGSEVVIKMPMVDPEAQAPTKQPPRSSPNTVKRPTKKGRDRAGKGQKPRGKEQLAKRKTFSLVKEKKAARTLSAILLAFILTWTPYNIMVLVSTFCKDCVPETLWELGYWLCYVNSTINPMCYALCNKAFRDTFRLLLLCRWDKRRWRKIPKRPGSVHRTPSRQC
# [6] = Excretion and mass balance after [14C]WX-0593; conditions: 0-168 hours
# [7] = 0.5 h, oral [14C]WX-0593 8 mg/kg
structure (smiles),measurement,setting,value
COc1cc(N2CCC3(CCN(C)CC3)CC2)ccc1Nc1ncc(Cl)c(Nc2ccccc2P(C)(C)=O)n1 [WX-0593],% peak area from mass spectrometry in plasma,[1]; female rats,97.24%
same,% peak area from mass spectrometry in plasma,[1]; male rats,96.81%
same,"total radioactivity relative to plasma, adrenal glands",[2]; 0.5 h,8.76 times
same,"total radioactivity relative to plasma, intestinal wall",[2]; 0.5 h,28.1 times
same,"total radioactivity relative to plasma, liver",[2]; 0.5 h,9.96 times
same,"total radioactivity relative to plasma, oesophagus",[2]; 0.5 h,9.07 times
same,"total radioactivity relative to plasma, stomach wall",[2]; 0.5 h,18.6 times
same,"mean total radioactivity, adrenal glands",[2]; [7],13334 ng Eq./g
same,"mean total radioactivity, intestinal wall",[2]; [7],42737 ng Eq./g
same,"mean total radioactivity, liver",[2]; [7],15160 ng Eq./g
same,"mean total radioactivity, oesophagus",[2]; [7],13803 ng Eq./g
same,"mean total radioactivity, plasma",[2]; [7],1522 ng Eq./g
same,"mean total radioactivity, stomach wall",[2]; [7],28265 ng Eq./g
same,"total radioactivity, body fat",[2]; 3 h,1079 ng Eq./g
same,"total radioactivity, plasma",[2]; 3 h,2062 ng Eq./g
same,"total radioactivity, skeletal muscles",[2]; 3 h,1417 ng Eq./g
same,"total radioactivity, testis and epididymis",[2]; 3 h,619 ng Eq./g
same,"total radioactivity, whole blood",[2]; 3 h,1366 ng Eq./g
same,"total radioactivity, whole brain",[2]; 3 h,114 ng Eq./g
same,"mean total radioactivity, adrenal glands",[2]; 72 h,1296 ng Eq./g
same,"mean total radioactivity, intestinal wall",[2]; 72 h,129 ng Eq./g
same,"mean total radioactivity, kidneys",[2]; 72 h,438 ng Eq./g
same,"mean total radioactivity, liver",[2]; 72 h,922 ng Eq./g
same,"mean total radioactivity, lungs",[2]; 72 h,103 ng Eq./g
same,"mean total radioactivity, lymph nodes",[2]; 72 h,292 ng Eq./g
same,"mean total radioactivity, spleen",[2]; 72 h,1883 ng Eq./g
same,"mean total radioactivity, testis and epididymis",[2]; 72 h,504 ng Eq./g
same,"mean total radioactivity, thymus",[2]; 72 h,95.8 ng Eq./g
same,"mean total radioactivity, uterus and ovaries",[2]; 72 h,187 ng Eq./g
same,inhibitory activity compared with brigatinib,ALK mutant L1196M,comparable with the activity of brigatinib; also recorded: comparable to brigatinib
same,MTD as multiple of the effective dose in nude mice,[3],20 times
same,activity percent at maximum dose (agonist),21 GPCR targets,less than 50%
same,EC50,21 GPCR targets; highest dose detected,> 133 µM
same,IC50,op-kappa,> 10 µM
same,Tmax,"[4]; both sexes, Sprague-Dawley, rat, plasma, oral gavage 2–24 mg/kg",2.08 to 2.75 h
same,half-life,"[4]; both sexes, Sprague-Dawley, rat, plasma, oral gavage 2–24 mg/kg, read-out: plasma terminal half-life",3.14 to 3.7 h
same,AUC(0-inf),"[4]; both sexes, Sprague-Dawley, rat, plasma, single IV 2 mg/kg",1560 ± 348 ng·h/mL
same,Vd,"[4]; both sexes, Sprague-Dawley, rat, plasma, single IV 2 mg/kg, read-out: apparent volume of distribution (Vdss)",5.23 ± 0.942 L/kg
same,MRT inf,"[4]; both sexes, Sprague-Dawley, rat, plasma, single IV 2 mg/kg, read-out: mean residence time (MRT0-inf)",3.96 ± 0.355 h
same,clearance,"[4]; both sexes, Sprague-Dawley, rat, plasma, single IV 2 mg/kg, read-out: plasma clearance (CL)",22.2 ± 4.67 mL/min/kg
same,half-life,"[4]; both sexes, Sprague-Dawley, rat, plasma, single IV 2 mg/kg, read-out: plasma elimination half-life T1/2 (converted)",3.58 ± 0.652 h
same,bioavailability,"[4]; both sexes, Sprague-Dawley, rat, plasma, single oral gavage 2 mg/kg",36.9%
same,bioavailability,"[4]; both sexes, Sprague-Dawley, rat, plasma, single oral gavage 24 mg/kg",69.6%
same,drug accumulation,"[4]; oral 8 mg/kg, 7 consecutive days",no significant drug accumulation
same,CL as % of hepatic blood flow in rats,[4]; single IV 2 mg/kg,40.3%
same,absolute bioavailability,[4]; single oral gavage 8 mg/kg,64.7%
same,drug exposure at MTD as multiple of that at the effective dose,[5]; female animals,13.7 times
same,drug exposure at MTD as multiple of that at the effective dose,[5]; male animals,9.5 times
same,IC50,M1,> 10 µM
same,dose excreted in feces,[6],85.84%
same,dose excreted in urine,[6],9.36%
same,dose in cage rinses and washes,[6],1.51%
same,mean radioactivity recovery rate,[6]; single oral [14C]WX-0593 8 mg/kg,96.71%

# — publication PMC8795197, “Safety and activity of WX-0593 (Iruplinalkib) in patients with ALK- or ROS1-rearranged advanced non-small cell lung cancer: a phase 1 dose-escalation and dose-expansion trial” (Signal Transduction and Targeted Therapy, 2022)
